The values that follow are results of earlier work, collected in US11162142B2, “BCR-ABL1 splice variants and uses thereof” (Quest Diagnostics Investments Incorporated, priority 2010, dated 2021).

The structures appear in SMILES notation. Counter-ions that a name gives are not always drawn. Like-named read-outs stand apart in the source and are kept apart here.

One data set deals with CML. Conditions: all stages of CML.

For the compound `Cc1ccc(NC(=O)c2ccc(CN3CCN(C)CC3)cc2)cc1Nc1nccc(-c2cccnc2)n1` [imatinib, imatinib mesylate], the Effectiveness of monotherapy entry in the data set with CML was “effective for all stages of CML”. Moreover, the “Primary resistance (failure to achieve any hematologic response) rate” value is given as 9% in the data set with patients with CML (accelerated-phase CML), 51% in the data set on patients with CML (blast-phase CML) and 3% with patients with CML (chronic-phase CML). Further, the “Secondary resistance (hematologic recurrence) rate” value in the data set on patients with CML (accelerated-phase CML) is recorded as 32%; with patients with CML (blast-phase CML), 41%; with patients with CML (chronic-phase CML), 22%.
